Measured values reported in ChEMBL document CHEMBL1201862, “PubChem BioAssay data set” (2004).
Calls of active or inactive are those of the source.

Experiments:
[1] = target: Lysosomal acid glucosylceramidase (Homo sapiens, UniProt P04062); experiment: Dose response cell-based high throughput screening assay to identify enhancers of beta-glucosidase activity. [Related pubchem assays: 784 ]; format: functional
[2] = target: Cytochrome P450 2C9 (Homo sapiens, UniProt P11712); conditions: Potency
[3] = target: Cytochrome P450 3A4 (Homo sapiens, UniProt P08684); conditions: Potency;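 note: confirmatory qHTS run detecting inhibitors and substrates of CYP3A4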
[4] = target: Melanin-concentrating hormone receptor 1 (Homo sapiens, UniProt Q99705); experiment: Late-stage fluorescence-based counterscreen for antagonists of the G-protein coupled receptor 7 (GPR7): cell-based dose response assay to identify antagonists of the melanin-concentrating hormone receptor 1 (MCHR1). [Related pubchem assays (depositor defined):AID1861, AID1880, AID1952, AID2148, AID2251, AID2257, AID485339]; format: functional;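 note: stimulated with 30 nM MCH peptide agonist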
[5] = system: INS1; experiment: beta cell apoptosis inhibitors, cytokine rescue, dose response, luminescence, retest (AID 449756); format: functional, cell-based; conditions: Rattus norvegicus;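 note: cell death triggered by IL-1 beta plus TNF-alpha plus IFN-gamma mixture; protective hits raise ATP signal compared with cytokine alone wells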
[6] = inhibitors of clade B AD8 Env fusion, dose response, cell-based, cherry-pick (AID 652062); format: functional;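 note: luciferase signal from cell-cell fusion driven by HIV-1 clade B AD8 Env; potency is for inhibitors of fusion seen as a drop in luminescence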
[7] = inhibitors of HIV Env-driven cell fusion, dose response, cherry-pick (AID 652057); format: functional, cell-based
[8] = target: Eukaryotic translation initiation factor 4E (Mus musculus, UniProt P63073); experiment: eIF4E–eIF4G protein interaction inhibitors, dose response, biochemical, TR-FRET (AID 855); format: functional;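 note: potency for disrupting eIF4E binding to eIF4GI seen as loss of FRET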
[9] = system: HEK293; experiment: Fluorescence-based counterscreen for potentiators or agonists of NPY-Y2: cell-based high-throughput dose response assay to identify inhibitors of cyclic nucleotide gated ion channel (CNGC) activity. In this assay, the parental HEK293 cell line transfected with a cyclic-nucleotide gated ion channel (CNGC)-based cAMP sensor is used to measure inhibition of isoproterenol-induced CNGC activity by test compound.; format: functional; conditions: Homo sapiens;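 note: stimulus is 1 µM isoproterenol at EC100 plus PDE inhibitor Ro 20-1724 at 25 µM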
[10] = off-target signal loss in HeLa-CEM21 co-culture – HeLa F-luc CTL cells, cherry-picked, counter-screen for HIV-1 Env fusion inhibitor project, dose response (AID 652040); format: functional, cell-based;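 note: potency for signal decrease marking cytotoxic or nonspecific inhibition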
[11] = target: Neuropeptide Y receptor type 2 (Homo sapiens, UniProt P49146); experiment: Fluorescence-based cell-based high-throughput dose response assay for agonists of NPY-Y2. [Related pubchem assays: 1703 (Screening assay (CNGC inhibitors).), 1359 (Screening assay (NPY-Y2 potentiators or agonists).), 1304 (Screening assay (NPY-Y1 potentiators or agonists).), 1710 (Screening assay (NPY-Y2 agonists).), 1791 (Summary AID.)]; format: functional
[12] = target: Neuropeptide Y receptor type 1 (Homo sapiens, UniProt P25929); experiment: Fluorescence-based counterscreen for agonists of NPY-Y2: cell-based high-throughput dose response assay for agonists of NPY-Y1.; format: functional
Chain of Neuropeptide Y receptor type 1 (P25929 whole entry): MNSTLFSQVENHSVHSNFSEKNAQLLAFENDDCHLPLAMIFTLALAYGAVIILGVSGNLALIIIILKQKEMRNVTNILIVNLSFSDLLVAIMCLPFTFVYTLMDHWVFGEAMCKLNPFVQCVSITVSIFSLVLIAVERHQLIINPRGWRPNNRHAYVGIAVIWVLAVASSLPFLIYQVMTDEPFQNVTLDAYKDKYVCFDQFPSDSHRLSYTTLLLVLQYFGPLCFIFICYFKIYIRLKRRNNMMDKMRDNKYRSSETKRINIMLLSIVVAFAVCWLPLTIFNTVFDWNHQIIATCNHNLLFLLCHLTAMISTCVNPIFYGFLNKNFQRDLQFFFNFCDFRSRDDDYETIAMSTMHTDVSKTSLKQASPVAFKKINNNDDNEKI

Chain of Melanin-concentrating hormone receptor 1 (Q99705 whole entry): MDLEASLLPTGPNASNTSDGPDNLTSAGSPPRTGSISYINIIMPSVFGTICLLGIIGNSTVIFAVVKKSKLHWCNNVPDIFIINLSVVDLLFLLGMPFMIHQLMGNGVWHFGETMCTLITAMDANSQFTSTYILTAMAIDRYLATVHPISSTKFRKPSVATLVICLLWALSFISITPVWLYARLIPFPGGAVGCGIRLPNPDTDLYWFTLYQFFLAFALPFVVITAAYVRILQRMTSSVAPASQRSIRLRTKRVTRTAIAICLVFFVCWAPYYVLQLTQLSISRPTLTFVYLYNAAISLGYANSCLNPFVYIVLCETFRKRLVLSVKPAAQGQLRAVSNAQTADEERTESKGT
Chain of Eukaryotic translation initiation factor 4E (P63073 whole entry): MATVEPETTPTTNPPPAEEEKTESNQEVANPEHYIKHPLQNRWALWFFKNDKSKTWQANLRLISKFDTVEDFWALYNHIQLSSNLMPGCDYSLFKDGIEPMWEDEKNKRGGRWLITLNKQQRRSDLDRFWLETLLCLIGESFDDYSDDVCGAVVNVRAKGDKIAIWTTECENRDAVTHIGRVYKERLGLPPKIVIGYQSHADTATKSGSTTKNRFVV
Chain of Cytochrome P450 2C9 (P11712 whole entry): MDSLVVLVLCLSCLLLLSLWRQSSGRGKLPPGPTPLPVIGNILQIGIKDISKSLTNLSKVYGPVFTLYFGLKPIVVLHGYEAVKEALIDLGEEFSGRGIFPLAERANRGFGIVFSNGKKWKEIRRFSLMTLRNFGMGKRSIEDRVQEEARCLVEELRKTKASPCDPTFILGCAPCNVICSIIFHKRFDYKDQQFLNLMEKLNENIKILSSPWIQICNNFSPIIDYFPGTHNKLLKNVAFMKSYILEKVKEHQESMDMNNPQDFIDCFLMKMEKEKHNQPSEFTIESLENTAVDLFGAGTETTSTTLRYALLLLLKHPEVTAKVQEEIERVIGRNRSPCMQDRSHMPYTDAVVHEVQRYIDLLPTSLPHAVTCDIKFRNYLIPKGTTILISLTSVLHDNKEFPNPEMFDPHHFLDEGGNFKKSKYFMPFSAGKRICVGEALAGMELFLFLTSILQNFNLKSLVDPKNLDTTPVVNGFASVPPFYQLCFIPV
Chain of Cytochrome P450 3A4 (P08684 whole entry): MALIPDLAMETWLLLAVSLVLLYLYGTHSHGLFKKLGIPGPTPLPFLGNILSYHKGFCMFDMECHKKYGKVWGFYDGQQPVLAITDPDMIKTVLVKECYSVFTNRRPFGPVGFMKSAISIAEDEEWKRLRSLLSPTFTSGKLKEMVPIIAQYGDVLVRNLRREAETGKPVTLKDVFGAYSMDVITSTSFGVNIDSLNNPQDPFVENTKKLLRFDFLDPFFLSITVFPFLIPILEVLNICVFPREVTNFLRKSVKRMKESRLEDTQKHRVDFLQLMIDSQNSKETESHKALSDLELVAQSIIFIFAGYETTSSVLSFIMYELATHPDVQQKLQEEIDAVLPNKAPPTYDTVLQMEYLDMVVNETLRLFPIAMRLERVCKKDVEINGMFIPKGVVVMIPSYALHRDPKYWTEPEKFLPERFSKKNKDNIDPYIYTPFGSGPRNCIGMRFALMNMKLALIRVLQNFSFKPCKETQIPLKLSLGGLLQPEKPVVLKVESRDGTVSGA
Chain of Neuropeptide Y receptor type 2 (P49146 whole entry): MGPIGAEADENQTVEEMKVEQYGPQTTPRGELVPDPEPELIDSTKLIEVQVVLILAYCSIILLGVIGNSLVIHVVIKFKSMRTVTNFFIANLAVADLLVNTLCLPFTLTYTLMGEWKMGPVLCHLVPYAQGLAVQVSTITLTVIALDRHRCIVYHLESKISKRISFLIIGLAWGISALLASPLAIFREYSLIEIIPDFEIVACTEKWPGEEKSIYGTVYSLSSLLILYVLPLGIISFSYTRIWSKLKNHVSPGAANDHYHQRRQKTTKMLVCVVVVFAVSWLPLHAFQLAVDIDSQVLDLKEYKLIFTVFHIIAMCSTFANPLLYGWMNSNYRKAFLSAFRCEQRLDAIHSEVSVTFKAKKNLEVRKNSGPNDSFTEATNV
Chain of Lysosomal acid glucosylceramidase (P04062 whole entry): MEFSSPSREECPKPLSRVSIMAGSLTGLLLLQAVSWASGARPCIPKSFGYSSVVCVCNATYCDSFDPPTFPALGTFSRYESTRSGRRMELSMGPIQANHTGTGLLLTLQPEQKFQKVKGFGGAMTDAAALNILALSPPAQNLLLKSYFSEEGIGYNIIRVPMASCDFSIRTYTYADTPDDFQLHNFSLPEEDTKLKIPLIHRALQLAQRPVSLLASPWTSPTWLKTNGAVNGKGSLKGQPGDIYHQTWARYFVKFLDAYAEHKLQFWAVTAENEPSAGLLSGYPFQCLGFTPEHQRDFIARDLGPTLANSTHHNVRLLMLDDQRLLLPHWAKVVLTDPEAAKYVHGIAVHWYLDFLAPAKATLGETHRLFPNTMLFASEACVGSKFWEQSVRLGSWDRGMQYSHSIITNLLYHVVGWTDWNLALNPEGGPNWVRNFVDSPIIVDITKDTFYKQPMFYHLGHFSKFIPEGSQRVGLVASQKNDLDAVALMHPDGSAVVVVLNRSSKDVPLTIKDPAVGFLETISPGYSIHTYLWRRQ

CC(C)Oc1cccc(C(=O)Nc2ccccc2N2CCOCC2)c1
EC50 [1]: > 50 µM (not active)

CCCCCCCC#Cc1ccccc1C(NC(=O)OC)C(C(=O)OC)C(=O)OC (configuration not stated)
AC50 [2]: 7.94 µM (inconclusive)
AC50 [3]: 3.16 µM (inconclusive)

Cc1ccc(-n2ncc(Cl)c(Oc3ccccc3)c2=O)cc1
IC50 [4]: 13.7 µM (inactive)

N#C/C(=N\Nc1ccc(Cl)cc1)C(=O)c1ccccc1
AC50 [5]: 3.07 µM (active)
AC50 [6]: 24.5 µM (active)
AC50 [7]: 39.2 µM (active)
IC50 [8]: > 64 µM (inactive)
EC50 [9]: 7.25 µM (active)
AC50 [10]: 42 µM (active)
EC50 [11]: 9.92 µM (active)
EC50 [12]: 9.38 µM (active)
